Converted amounts (≈) assume the structure as drawn. Where two headings read alike, the source gives them in different places.
How the values were obtained:
[1] = system: HT-29: human colorectal adenocarcinoma cell; test: micro-culture tetrazolium assay, in vitro cytotoxicity on HT-29; type: cell-based; conditions: for IC50: read-out: In vitro cytotoxicities (IC50) HT-29
Protocol: (§1) The anticancer activities of the deoxoartemisinin dimer and trimer of the present invention were measured by a known micro-culture tetrazolium assay (see Carmichel, J.; DeGraff, W. G; Gazdar, A. F.; Minna, J. D.; Mitchell, J. B., Evaluation of a Tetrazolium-based Semiautomated Colorimetric Assay: Assessment of Chemosensitivity testing, Cancer Res., 1987, 47, 936–42).

[2] = system: SKOV3: human ovarian carcinoma cell; test: micro-culture tetrazolium assay, in vitro cytotoxicity on SKOV3; type: cell-based; conditions: SK-OV-3, read-out: In vitro cytotoxicities (IC50) SKOV3
Protocol: as §1

[3] = system: EL4: mouse thymoma cell; test: micro-culture tetrazolium assay, in vitro cytotoxicity on EL4; type: cell-based; conditions: for IC50: read-out: In vitro cytotoxicities (IC50) EL4
[4] = system: MCF7: human breast carcinoma cell; test: micro-culture tetrazolium assay, in vitro cytotoxicity on MCF7; type: cell-based
[5] = system: P388: mouse fibroblast leukemia cell; test: micro-culture tetrazolium assay, in vitro cytotoxicity on P388; type: cell-based; conditions: for anticancer activity, fold higher than that of mitomycin: versus mitomycin
[6] = system: Bewo: human choriocarcinoma cell; test: micro-culture tetrazolium assay, in vitro cytotoxicity on Bewo; type: cell-based; conditions: for IC50: read-out: In vitro cytotoxicities (IC50) Bewo
[7] = system: PANC-1: human pancreatic cancer cell; test: micro-culture tetrazolium assay, in vitro cytotoxicity on PANC-1; type: cell-based; conditions: for IC50: PANC-1 human pancreatic cancer cell, read-out: In vitro cytotoxicities (IC50) PANC-1
Protocol: as §1

[8] = system: A549: human lung cancer cell; test: micro-culture tetrazolium assay, in vitro cytotoxicity on A549; type: cell-based
[9] = water solubility; type: physicochemical
[10] = MCF7 human breast carcinoma cell, read-out: In vitro cytotoxicities (IC50) MCF7
[11] = P388 mouse fibroblast leukemia cell, read-out: In vitro cytotoxicities (IC50) P388
[12] = Bewo human choriocarcinoma cell
[13] = MCF7 human breast carcinoma cell
[14] = P388 mouse fibroblast leukemia cell

Row | Compound | IC50 [1] | IC50 [2] | IC50 ([3]; EL4 mouse thymoma cell) | IC50 [4, 10] | IC50 [5, 11] | IC50 [6, 12] | also measured
1 | C[C@H]1[C@@H](CCNC(=O)CC[C@H]2O[C@@H]3O[C@@]4(C)CC[C@H]5[C@H](C)CC[C@@H]([C@H]2C)[C@@]35OO4)O[C@@H]2O[C@@]3(C)CC[C@H]4[C@H](C)CC[C@@H]1[C@@]24OO3 [Compound (IVc), 12-(2′-amidethyl)deoxoartemisinin Dimer] | 0.69 mg/L (≈ 1.09 µM) | 12.6 mg/L (≈ 19.9 µM) | 6.29 mg/L (≈ 9.92 µM) | 0.005 mg/L (≈ 0.00789 µM) | 10.4 mg/L (≈ 16.4 µM) | 7.5 mg/L (≈ 11.8 µM) | anticancer activity, fold higher than that of adriamycin ([4]; MCF7, versus adriamycin): at least 24 fold; anticancer activity, fold higher than that of mitomycin ([4]; MCF7, versus mitomycin): at least 200 fold
2 | 12-(4′-aminobutyl)deoxoartemisinin dimer [Compound (IVc′)] | – | – | – | – | – | – | In vitro cytotoxicities (IC50) HT-29 [1]: 20.20 mg/L; In vitro cytotoxicities (IC50) EL4 ([3]; EL4 mouse thymoma cell): >20 mg/L; In vitro cytotoxicities (IC50) MCF7 [4, 13]: >20 mg/L; In vitro cytotoxicities (IC50) P388 [5, 14]: >20 mg/L; In vitro cytotoxicities (IC50) Bewo [6, 12]: >20 mg/L
3 | C[C@H]1[C@@H](CCNC(=O)CC[C@H](NC(=O)CC[C@H]2O[C@@H]3O[C@]4(C)CC[C@H]5[C@H](C)CC[C@@H]([C@H]2C)[C@@]35OO4)C(=O)NCC[C@H]2O[C@@H]3O[C@]4(C)CC[C@H]5[C@H](C)CC[C@@H]([C@H]2C)[C@@]35OO4)O[C@@H]2O[C@]3(C)CC[C@H]4[C@H](C)CC[C@@H]1[C@@]24OO3 [Compound (IVe), deoxoartemisinin trimer] | 0.09 mg/L (≈ 0.0852 µM) | 11.2 mg/L (≈ 10.6 µM) | 1.07 mg/L (≈ 1.01 µM) | 0.017 mg/L (≈ 0.0161 µM) | 0.12 mg/L (≈ 0.114 µM) | 18.3 mg/L (≈ 17.3 µM) | melting point: 138 °C; IC50 [7]: 2.69 mg/L (≈ 2.55 µM); anticancer activity, fold higher than that of taxol ([7]; human pancreatic cancer cell, versus taxol): at least 2 fold; anticancer activity, fold higher than that of adriamycin ([5]; P388, versus adriamycin): at least 3 fold; anticancer activity, fold higher than that of mitomycin ([5]; P388): at least 12 fold; anticancer activity, fold higher than that of taxol ([5]; P388, versus taxol): at least 20 fold; IC50 ([8]; A549 human lung cancer cell, read-out: In vitro cytotoxicities (IC50) A549): 2.45 mg/L (≈ 2.32 µM)
4 | CC(=O)O[C@H]1C(=O)[C@@]2(C)[C@H]([C@H](OC(=O)c3ccccc3)[C@]3(O)C[C@H](OC(=O)[C@H](O)[C@@H](NC(=O)c4ccccc4)c4ccccc4)C(C)=C1C3(C)C)[C@]1(OC(C)=O)CO[C@@H]1C[C@@H]2O [Taxol, reference compound] | 0.01 mg/L (≈ 0.0117 µM) | 12.3 mg/L (≈ 14.4 µM) | 1.34 mg/L (≈ 1.57 µM) | – | 2.27 mg/L (≈ 2.66 µM) | 7.39 mg/L (≈ 8.65 µM) | IC50 [7]: 5.76 mg/L (≈ 6.75 µM)
5 | C[C@H]1[C@@H](CCNC(=O)CC[C@H](N)C(=O)NCC[C@H]2O[C@@H]3O[C@@]4(C)CC[C@H]5[C@H](C)CC[C@@H]([C@H]2C)[C@@]35OO4)O[C@@H]2O[C@@]3(C)CC[C@H]4[C@H](C)CC[C@@H]1[C@@]24OO3 [Compound (IVd), 12-[2′-(N-glutamic)-α,β-amide]deoxoartemisinin dimer] | 6.5 mg/L (≈ 8.86 µM) | – | 16.5 mg/L (≈ 22.5 µM) | 15.3 mg/L (≈ 20.8 µM) | 15.6 mg/L (≈ 21.3 µM) | > 20 mg/L | water solubility relative to artemisinin ([9]; compared with artemisinin): five times more water soluble; solubility ([9]; water): 5.21 mg/mL (≈ 7100 µM)
6 | CO[C@@]12[C@H](COC(N)=O)C3=C(C(=O)C(C)=C(N)C3=O)N1C[C@@H]1N[C@@H]12 [Mitomycin, reference compound] | 0.02 mg/L (≈ 0.0598 µM) | – | – | – | – | – | IC50 ([3]; Mus musculus): 3.94 mg/L (≈ 11.8 µM); IC50 ([4]; Homo sapiens, MCF7, read-out: In vitro cytotoxicities (IC50) MCF7): 0.93 mg/L (≈ 2.78 µM); IC50 ([5]; Mus musculus, P388, read-out: In vitro cytotoxicities (IC50) P388): 1.5 mg/L (≈ 4.49 µM); IC50 ([6]; Homo sapiens, BeWo): 0.85 mg/L (≈ 2.54 µM); IC50 ([8]; Homo sapiens, A549, read-out: In vitro cytotoxicities (IC50) A549): 1.85 mg/L (≈ 5.53 µM)
7 | COc1cccc2c1C(=O)c1c(O)c3c(c(O)c1C2=O)C[C@@](O)(C(=O)CO)C[C@@H]3O[C@H]1C[C@H](N)[C@H](O)[C@H](C)O1 [Adriamycin, reference compound] | 0.1 mg/L (≈ 0.184 µM) | – | 0.67 mg/L (≈ 1.23 µM) | 0.12 mg/L (≈ 0.221 µM) | 0.39 mg/L (≈ 0.718 µM) | 6.24 mg/L (≈ 11.5 µM) | –
8 | CC1CCC2C(C)C(CCS(=O)(=O)CCC3OC4OC5(C)CCC6C(C)CCC(C3C)C46OO5)OC3OC4(C)CCC1C32OO4 (centres unmarked) [Compound (IVa2), 12-(2′-sulfonylethyl)deoxoartemisinin dimer] | – | – | – | – | – | – | In vitro cytotoxicities (IC50) HT-29 [1]: 0.38 mg/L; In vitro cytotoxicities (IC50) EL4 ([3]; EL4 mouse thymoma cell): 0.54 mg/L; In vitro cytotoxicities (IC50) MCF7 [4, 13]: 0.025 mg/L; In vitro cytotoxicities (IC50) P388 [5, 14]: 5.60 mg/L; In vitro cytotoxicities (IC50) Bewo [6, 12]: 1.04 mg/L; anticancer activity, fold higher than that of taxol and adriamycin ([6]; Bewo, versus taxol and adriamycin): at least 6 fold
9 | C[C@H]1[C@@H](CCSCC[C@H]2O[C@@H]3O[C@@]4(C)CC[C@H]5[C@H](C)CC[C@@H]([C@H]2C)[C@@]35OO4)O[C@@H]2O[C@@]3(C)CC[C@H]4[C@H](C)CC[C@@H]1[C@@]24OO3 [Compound (IVa1), 12-(2′-ethylsulfide)deoxoartemisinin dimer] | 0.24 mg/L (≈ 0.385 µM) | – | 0.23 mg/L (≈ 0.369 µM) | 0.017 mg/L (≈ 0.0273 µM) | 0.4 mg/L (≈ 0.642 µM) | 14.2 mg/L (≈ 22.8 µM) | anticancer activity, fold higher than that of mitomycin ([5]; P388): at least 4 fold

Reference: patent US7205332B2, “Deoxoartemisinin analogs, process for their preparation, and anticancer agent comprising them” (Industry-Academic Cooperation Foundation, Yonsei University, priority 2003, dated 2007)
